These results are taken from patent US12557545B2, “Compound and organic light emitting device comprising the same” (LG Chem, Ltd., priority 2020, dated 2026).

This series can be described thus: Solubility experiment in cyclohexanone. Format: physicochemical. The settings on record: dissolved in cyclohexanone (CHON) under normal temperature/pressure; whether 0.1 wt % or more was dissolved. On the procedure:
In order to confirm the solubility in the solvent used in the solution process of the compounds prepared in the Preparation Examples and the comparative compounds, each of them was dissolved in the solvent cyclohexanone (CHON) under normal temperature/pressure conditions, and it was confirmed whether 0.1 wt % or more was dissolved.
`CC(C)(C)c1ccc(N(c2ccc(C(C)(C)C)cc2)c2ccc3c4c5ccc6c(c5ccc4n(-c4ccccc4)c3c2)c2ccc(N(c3ccc(C(C)(C)C)cc3)c3ccc4c5c7ccc8c(c7ccc5n(-c5ccccc5)c4c3)c3ccc(N(c4ccc(C(C)(C)C)cc4)c4ccc(C(C)(C)C)cc4)cc3n8-c3ccccc3)cc2n6-c2ccccc2)cc1` [Compound 6]: the “Solvent CHON (solubility)” value is on record as “◯ (0.1 wt. % or more soluble)”. Take `CC(C)(C)c1ccc(N(c2ccc3c4c5ccc6c(c5ccc4n(-c4ccccc4)c3c2)c2ccc(N(c3ccc(-c4ccc5c(c4)c4ccccc4n5-c4ccccc4)cc3)c3ccc4ccccc4c3)cc2n6-c2ccccc2)c2ccc3c4c5ccc6c(c5ccc4n(-c4ccccc4)c3c2)c2ccc(N(c3ccc(-c4ccc5c(c4)c4ccccc4n5-c4ccccc4)cc3)c3ccc4ccccc4c3)cc2n6-c2ccccc2)cc1` [Compound 9]: the “Solvent CHON (solubility)” value was “◯ (0.1 wt. % or more soluble)”.

Take `Cc1cccc(N(c2ccc3c(c2)c2c4ccc5c(c4ccc2n3-c2ccccc2)c2cc(N(c3ccc(C(C)(C)C)cc3)c3ccc4c(c3)c3c6ccc7c(c6ccc3n4-c3ccccc3)c3cc(N(c4cccc(C)c4)c4cccc6c4oc4ccccc46)ccc3n7-c3ccccc3)ccc2n5-c2ccccc2)c2cccc3c2oc2ccccc23)c1` [Compound 19]: the “Solvent CHON (solubility)” value is given as “◯ (0.1 wt. % or more soluble)”. The value for `c1ccc(N(c2ccccc2)c2ccc3c4c5ccc6c(c5ccc4n(-c4ccccc4)c3c2)c2ccc(N(c3ccc4cc(-c5cc7ccccc7o5)ccc4c3)c3ccc4c5c7ccc8c(c7ccc5n(-c5ccccc5)c4c3)c3ccc(N(c4ccccc4)c4ccccc4)cc3n8-c3ccccc3)cc2n6-c2ccccc2)cc1` [Compound 12] was “◯ (0.1 wt. % or more soluble)”; that for `Cc1cccc(N(c2ccc3c4c5ccc6c(c5ccc4n(-c4ccccc4)c3c2)c2ccc(Oc3ccc4c5c7ccc8c(c7ccc5n(-c5ccccc5)c4c3)c3ccc(N(c4cccc(C)c4)c4cccc5c4oc4ccccc45)cc3n8-c3ccccc3)cc2n6-c2ccccc2)c2cccc3c2oc2ccccc23)c1` [Compound 17] was “◯ (0.1 wt. % or more soluble)”; that for `Cc1cccc(N(c2ccc3c4c5ccc6c(c5ccc4n(-c4ccccc4)c3c2)c2ccc(N(c3ccccc3)c3ccc4c5c7ccc8c(c7ccc5n(-c5ccccc5)c4c3)c3ccc(N(c4cccc(C)c4)c4cccc5c4oc4ccccc45)cc3n8-c3ccccc3)cc2n6-c2ccccc2)c2cccc3c2oc2ccccc23)c1` [Compound 4] was “◯ (0.1 wt. % or more soluble)”. With `Cc1cccc(N(c2ccc3c4c5ccc6c(c5ccc4n(-c4ccccc4)c3c2)c2ccc(N(c3cccc(C)c3)c3cccc4c3oc3ccccc34)cc2n6-c2ccccc2)c2ccc3c4c5ccc6c(c5ccc4n(-c4ccccc4)c3c2)c2ccc(N(c3cccc(C)c3)c3cccc4c3oc3ccccc34)cc2n6-c2ccccc2)c1` [Compound 2] the entry was “◯ (0.1 wt. % or more soluble)”; with `CC(C)(C)c1ccc(N(c2ccc3c4c5ccc6c(c5ccc4n(-c4ccccc4)c3c2)c2ccc(N(c3ccccc3)c3ccc4cc(-c5cc7ccccc7o5)ccc4c3)cc2n6-c2ccccc2)c2ccc3c4c5ccc6c(c5ccc4n(-c4ccccc4)c3c2)c2ccc(N(c3ccccc3)c3ccc4cc(-c5cc7ccccc7o5)ccc4c3)cc2n6-c2ccccc2)cc1` [Compound 10], “◯ (0.1 wt. % or more soluble)”. With `Cc1cccc(N(c2ccc3c4c5ccc6c(c5ccc4n(-c4ccccc4)c3c2)c2ccc(-c3cccc(-c4ccc5c7c8ccc9c(c8ccc7n(-c7ccccc7)c5c4)c4ccc(N(c5cccc(C)c5)c5cccc7c5oc5ccccc57)cc4n9-c4ccccc4)c3)cc2n6-c2ccccc2)c2cccc3c2oc2ccccc23)c1` [Compound 15] the entry was “◯ (0.1 wt. % or more soluble)”; with `Cc1cccc(N(c2ccc3c4c5ccc6c(c5ccc4n(-c4ccccc4)c3c2)c2ccc(-c3ccc(-c4ccc5c7c8ccc9c(c8ccc7n(-c7ccccc7)c5c4)c4ccc(N(c5cccc(C)c5)c5cccc7c5oc5ccccc57)cc4n9-c4ccccc4)cc3)cc2n6-c2ccccc2)c2cccc3c2oc2ccccc23)c1` [Compound 14], “◯ (0.1 wt. % or more soluble)”. As to `CC(C)(C)c1ccc(N(c2ccc(C(C)(C)C)cc2)c2ccc3c4c5ccc6c(c5ccc4n(-c4ccccc4)c3c2)c2ccc(N(c3ccc4c5c7ccc8c(c7ccc5n(-c5ccccc5)c4c3)c3ccc(N(c4ccc(C(C)(C)C)cc4)c4ccc(C(C)(C)C)cc4)cc3n8-c3ccccc3)c3cccc4c3oc3ccccc34)cc2n6-c2ccccc2)cc1` [Compound 7], the “Solvent CHON (solubility)” value was “◯ (0.1 wt. % or more soluble)”.

As to `CC(C)(C)c1ccc(N(c2ccc3c4c5ccc6c(c5ccc4n(-c4ccccc4)c3c2)c2ccc(N(c3ccccc3)c3ccc4ccccc4c3)cc2n6-c2ccccc2)c2ccc3c4c5ccc6c(c5ccc4n(-c4ccccc4)c3c2)c2ccc(N(c3ccccc3)c3ccc4ccccc4c3)cc2n6-c2ccccc2)cc1` [Compound 13], the “Solvent CHON (solubility)” value was “◯ (0.1 wt. % or more soluble)”. The value for `CC1(C)c2cc(-c3cc4ccccc4o3)ccc2-c2ccc(N(c3ccccc3)c3ccc4c5c6ccc7c(c6ccc5n(-c5ccccc5)c4c3)c3ccc(N(c4ccccc4)c4ccc5c(c4)C(C)(C)c4cc(-c6cc8ccccc8o6)ccc4-5)cc3n7-c3ccccc3)cc21` [Compound J, reference compound] was “X (0.1 wt. % or more insoluble)”; that for `CC(C)(C)c1ccc(N(c2ccc3c4c5ccc6c(c5ccc4n(-c4ccccc4)c3c2)c2ccc(N(c3ccccc3)c3ccccc3)cc2n6-c2ccccc2)c2ccc3c4c5ccc6c(c5ccc4n(-c4ccccc4)c3c2)c2ccc(N(c3ccccc3)c3ccccc3)cc2n6-c2ccccc2)cc1` [Compound 11] was “◯ (0.1 wt. % or more soluble)”; that for `CC(C)(C)c1ccc(N(c2ccc(C(C)(C)C)cc2)c2ccc3c4c5ccc6c(c5ccc4n(-c4ccccc4)c3c2)c2ccc(N(c3ccc(-c4cc5ccccc5o4)cc3)c3ccc4c5c7ccc8c(c7ccc5n(-c5ccccc5)c4c3)c3ccc(N(c4ccc(C(C)(C)C)cc4)c4ccc(C(C)(C)C)cc4)cc3n8-c3ccccc3)cc2n6-c2ccccc2)cc1` [Compound 8] was “◯ (0.1 wt. % or more soluble)”. The value for `Cc1cccc(N(c2ccc3c4c5ccc6c(c5ccc4n(-c4ccccc4)c3c2)c2ccc(N(c3ccc(-c4cc5ccccc5o4)cc3)c3ccc4c5c7ccc8c(c7ccc5n(-c5ccccc5)c4c3)c3ccc(N(c4cccc(C)c4)c4cccc5c4oc4ccccc45)cc3n8-c3ccccc3)cc2n6-c2ccccc2)c2cccc3c2oc2ccccc23)c1` [Compound 5] was “◯ (0.1 wt. % or more soluble)”; that for `Cc1cccc(N(c2ccc3c4c5ccc6c(c5ccc4n(-c4ccccc4)c3c2)c2ccc(N(c3ccc(C(C)(C)C)cc3)c3ccc4c5c7ccc8c(c7ccc5n(-c5ccccc5)c4c3)c3ccc(N(c4cccc(C)c4)c4cccc5c4oc4ccccc45)cc3n8-c3ccccc3)cc2n6-c2ccccc2)c2cccc3c2oc2ccccc23)c1` [Compound 1] was “◯ (0.1 wt. % or more soluble)”; that for `Cc1cccc(N(c2cccc3c2oc2ccccc23)c2cccc3c2c2c4ccc5c(c4ccc2n3-c2ccccc2)c2c(N(c3ccc(C(C)(C)C)cc3)c3cccc4c3c3c6ccc7c(c6ccc3n4-c3ccccc3)c3c(N(c4cccc(C)c4)c4cccc6c4oc4ccccc46)cccc3n7-c3ccccc3)cccc2n5-c2ccccc2)c1` [Compound 21] was “◯ (0.1 wt. % or more soluble)”. The value for `Cc1cccc(N(c2ccc3c4c5ccc6c(c5ccc4n(-c4ccccc4)c3c2)c2ccc(N(c3ccc4c5c7ccc8c(c7ccc5n(-c5ccccc5)c4c3)c3ccc(N(c4cccc(C)c4)c4cccc5c4oc4ccccc45)cc3n8-c3ccccc3)c3cccc4c3oc3ccccc34)cc2n6-c2ccccc2)c2cccc3c2oc2ccccc23)c1` [Compound 3] was “◯ (0.1 wt. % or more soluble)”; that for `Cc1cccc(N(c2ccc3c4c5ccc6c(c5ccc4n(-c4ccccc4)c3c2)c2ccc(-c3ccc4c5c7ccc8c(c7ccc5n(-c5ccccc5)c4c3)c3ccc(N(c4cccc(C)c4)c4cccc5c4oc4ccccc45)cc3n8-c3ccccc3)cc2n6-c2ccccc2)c2cccc3c2oc2ccccc23)c1` [Compound 16] was “◯ (0.1 wt. % or more soluble)”.
